Results as given in ChEMBL document CHEMBL4842358, “Design, synthesis and biological evaluation of sphingosine-1-phosphate receptor 2 antagonists as potent 5-FU-resistance reversal agents for the treatment of colorectal cancer” (Eur J Med Chem, 2021).
Activity calls are given as the source filed them. The calls are words filed in the database; no cut-off is given here.

What was measured:
[1] = AUC (0 to t) in Sprague-Dawley rat blood at 1 mg/kg, iv measured for 24 hrs by LC-MS/MS analysis; type: ADME, organism-based; set-up: time 24 hrs, dose 1 mg/kg
[2] = Half life in Sprague-Dawley rat blood at 1 mg/kg, iv measured for 24 hrs by LC-MS/MS analysis; type: ADME, organism-based
[3] = Initial drug concentration in Sprague-Dawley rat blood at 1 mg/kg, iv by LC-MS/MS analysis; type: ADME, organism-based
[4] = Initial plasma concentration in Sprague-Dawley rat at 1 mg/kg, iv by LC-MS/MS analysis; type: ADME, organism-based
Mus musculus [5] = experiment: Downregulation of DPD expression in liver of athymic nude mouse xenografted with human SW620/5-FU at 1.08 mg/kg/day, iv administered for 24 days in presence of 5-FU and measured on day 24 by immunohistochemistry; type: functional, organism-based; settings: time 24.0 day
Mus musculus [6] = experiment: Downregulation of DPD expression in tumour of athymic nude mouse xenografted with human SW620/5-FU at 1.08 mg/kg/day, iv administered for 24 days in presence of 5-FU and measured on day 24 by immunohistochemistry; type: functional, organism-based; settings: time 24.0 day
[7] = Toxicity in athymic nude mouse xenografted with human SW620/5-FU cells assessed as histopathological changes in liver at 1.08 mg/kg/day, iv administered for 24 days in presence of 5-FU and measured on day 24 by immunohistochemistry; type: organism-based; settings: in vivo, 576 h, time 24 day
Mus musculus [8] = experiment: Downregulation of DPD expression in liver of athymic nude mouse xenografted with human SW620/5-FU at 1.08 mg/kg/day, iv administered for 24 days in presence of 5-FU and measured on day 24 by Western blot assay; type: functional, organism-based; settings: time 24.0 day
Mus musculus [9] = experiment: Downregulation of DPD expression in tumour of athymic nude mouse xenografted with human SW620/5-FU at 1.08 mg/kg/day, iv administered for 24 days in presence of 5-FU and measured on day 24 by Western blot assay; type: functional, organism-based; settings: time 24.0 day
SW620/5-FU = experiment: Antitumour activity against human SW620/5-FU cells xenografted in athymic nude mouse assessed as inhibition of tumour growth at 1.08 mg/kg/day, iv administered for 24 days; type: functional; settings: 576 h, time 24 day, read-out: TGI
[10] = Reversal of 5-FU resistance against human SW620/5-FU cells xenografted in athymic nude mouse assessed as potentiation of 5-FU induced antitumor activity by measuring inhibition of tumor growth at 1.08 mg/kg/day, iv administered for 24 days in presence of 5-FU (reference value: 18.54%); type: functional; settings: 576 h, time 24 day, read-out: TGI
[11] = Toxicity in athymic nude mouse xenografted with human SW620/5-FU cells assessed as changes in body weight at 1.08 mg/kg/day, iv administered for 24 days in presence of 5-FU and measured for every 4 days; type: organism-based; settings: in vivo, 576 h, time 24 day
[12] = target: T1, Sphingosine 1-phosphate receptor 2 (Homo sapiens, UniProt O95136); experiment: Binding affinity to S1PR2 (unknown origin) assessed as association constant measured for 60 secs by surface plasmon resonance assay; settings: filed as antagonist, time 60.0 sec
T1 sequence (O95136 whole entry): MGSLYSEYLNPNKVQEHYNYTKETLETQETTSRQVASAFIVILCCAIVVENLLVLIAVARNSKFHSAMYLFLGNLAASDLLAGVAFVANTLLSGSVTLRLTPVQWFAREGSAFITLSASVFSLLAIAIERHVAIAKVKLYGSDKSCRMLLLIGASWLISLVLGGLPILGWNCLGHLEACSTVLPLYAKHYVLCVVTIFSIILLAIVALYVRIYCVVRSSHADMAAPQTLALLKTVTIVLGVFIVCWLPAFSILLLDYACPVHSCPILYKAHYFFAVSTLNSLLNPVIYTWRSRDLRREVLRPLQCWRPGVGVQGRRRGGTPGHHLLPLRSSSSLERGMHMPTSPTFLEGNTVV

[13] = target: T1, Sphingosine 1-phosphate receptor 2; experiment: Binding affinity to S1PR2 (unknown origin) assessed as dissociation constant measured for 60 secs by surface plasmon resonance assay
[14] = target: T1, Sphingosine 1-phosphate receptor 2; experiment: Binding affinity to S1PR2 (unknown origin) measured by surface plasmon resonance assay; settings: filed as antagonist
[15] = Reversal of 5-FU resistance against human SW620/5-FU cells assessed as inhibition of cell proliferation measured after 72 hrs in presence of 5-FU by MTT assay; type: functional, cell-based
HCT-116 = experiment: Reversal of 5-FU resistance against human HCT-116 cells overexpressing DPD assessed as inhibition of cell proliferation measured after 72 hrs in presence of 5-FU by MTT assay; type: functional, cell-based; settings: HCT-116, 72 h
NCM460 = experiment: Cytotoxicity against human NCM460 cells assessed as cell viability measured after 72 hrs in presence of 5-FU by MTT assay; type: cell-based; settings: NCM460, 72 h
[16] = target: T1, Sphingosine 1-phosphate receptor 2; experiment: Antagonist activity at S1PR2 in human SW620/5-FU cells assessed as downregulation of DPD expression by western blot analysis; type: functional, cell-based; settings: filed as antagonist
[17] = target: T1, Sphingosine 1-phosphate receptor 2; experiment: Antagonist activity at S1PR2 in human HCT-116 cells overexpressing DPD assessed as downregulation of DPD expression by western blot analysis; type: functional, cell-based; settings: filed as antagonist, dose 0.16-2.5 µM
[18] = target: T1, Sphingosine 1-phosphate receptor 2; experiment: Antagonist activity at S1PR2 in human HCT-116 cells overexpressing DPD assessed as downregulation of JMJD3 expression at 0.16 to 2.5 uM measured by western blot assay; type: functional, cell-based; settings: filed as antagonist, dose 0.16-2.5 µM
[19] = target: T1, Sphingosine 1-phosphate receptor 2; experiment: Antagonist activity at S1PR2 in human SW620/5-FU cells assessed as downregulation of JMJD3 expression at 0.16 to 2.5 uM measured by western blot assay; type: functional, cell-based; settings: filed as antagonist, dose 0.16-2.5 µM
[20] = Downregulation of S1PR2 expression in human HCT-116 cells overexpressing DPD at 0.16 to 2.5 uM cells measured by western blot assay; type: ADME, cell-based; settings: hct-116, 2.5 µM, dose 0.16-2.5 µM
[21] = Downregulation of human S1PR2 expression in human SW620/5-FU cells at 0.16 to 2.5 uM cells measured by western blot assay; type: ADME, cell-based; settings: dose 0.16-2.5 µM
[22] = target: T1, Sphingosine 1-phosphate receptor 2; experiment: Antagonist activity at S1PR2 in human SW620/5-FU cells assessed as reduction of DPD-catalyzed 5-FU degradation by measuring intracellular 5-FU level at 2 uM measured after 6 hrs by HPLC-UV analysis; type: functional, cell-based; settings: filed as antagonist
[23] = target: T1, Sphingosine 1-phosphate receptor 2; experiment: Antagonist activity at S1PR2 in human SW620/5-FU cells assessed as reduction of DPD-catalyzed 5-FU degradation by measuring intracellular FBAL level at 2 uM measured after 6 hrs by HPLC-UV analysis; type: functional, cell-based; settings: filed as antagonist
[24] = target: T1, Sphingosine 1-phosphate receptor 2; experiment: Antagonist activity at S1PR2 in human SW620/5-FU cells assessed as reduction in dosage of 5-FU at 0.5 to 2.5 uM measured after 6 hrs by HPLC-UV analysis; type: functional, cell-based; settings: filed as antagonist, dose 0.5-2.5 µM
[25] = Stability in mouse liver microsomes assessed as parent compound remaining at 2 umol/L measured after 60 mins in presence of NADPH regenerating system by LC-MS/MS analysis; type: ADME, Microsome; settings: dose 2 µmol/L, read-out: Stabilty
[26] = Stability in rat liver microsomes assessed as parent compound remaining at 2 umol/L measured after 60 mins in presence of NADPH regenerating system by LC-MS/MS analysis; type: ADME, Microsome; settings: dose 2 µmol/L, read-out: Stabilty
[27] = Half life in Sprague-Dawley rat plasma at 1 mg/kg, iv measured for 24 hrs by LC-MS/MS analysis; type: ADME, organism-based
[28] = AUC (0 to t) in Sprague-Dawley rat plasma at 1 mg/kg, iv measured for 24 hrs by LC-MS/MS analysis; type: ADME, organism-based; set-up: dose 1 mg/kg, time 24 hrs
[29] = AUC (0 to infinity) in Sprague-Dawley rat blood at 1 mg/kg, iv by LC-MS/MS analysis; type: ADME, organism-based; set-up: route intravenous, time infinity, dose 1 mg/kg
[30] = AUC (0 to infinity) in Sprague-Dawley rat plasma at 1 mg/kg, iv by LC-MS/MS analysis; type: ADME, organism-based; set-up: time infinity, route intravenous, dose 1 mg/kg
[31] = Volume of distribution in Sprague-Dawley rat blood at 1 mg/kg, iv measured for 24 hrs by LC-MS/MS analysis; type: ADME, organism-based
[32] = Volume of distribution in Sprague-Dawley rat plasma at 1 mg/kg, iv measured for 24 hrs by LC-MS/MS analysis; type: ADME, organism-based
[33] = Clearance in Sprague-Dawley rat blood at 1 mg/kg, iv measured for 24 hrs by LC-MS/MS analysis; type: ADME, organism-based
[34] = Clearance in Sprague-Dawley rat plasma at 1 mg/kg, iv measured for 24 hrs by LC-MS/MS analysis; type: ADME, organism-based
[35] = Mean residence time (0 to t) in Sprague-Dawley rat blood at 1 mg/kg, iv measured for 24 hrs by LC-MS/MS analysis; type: ADME, organism-based
[36] = Mean residence time (0 to t) in Sprague-Dawley rat plasma at 1 mg/kg, iv measured for 24 hrs by LC-MS/MS analysis; type: ADME, organism-based
[37] = Mean residence time (0 to infinity) in Sprague-Dawley rat blood at 1 mg/kg, iv by LC-MS/MS analysis; type: ADME, organism-based
[38] = Mean residence time (0 to infinity) in Sprague-Dawley rat plasma at 1 mg/kg, iv by LC-MS/MS analysis; type: ADME, organism-based
[39] = Ratio of drug level in Sprague-Dawley rat blood to plasma at 1 mg/kg, iv measured for 24 hrs by LC-MS/MS analysis; type: ADME, organism-based; settings: blood and plasma
Mus musculus [40] = experiment: Downregulation of DPD expression in colon of athymic nude mouse xenografted with human SW620/5-FU cells at 1.08 mg/kg/day, iv administered for 24 days in presence of 5-FU and measured on day 24 by immunohistochemistry; type: functional, organism-based; settings: time 24.0 day

O=C(Nc1cc(Cl)nc(Cl)c1)Nc1cc(Cl)nc(Cl)c1
AUC(0-t) at 24 h [1]: 1890 ng·h/mL
half-life [2]: 4.4 h
C0 [3]: 489 ng/mL
C0 [4]: 1110 ng/mL
inhibition (Mus musculus [5]): Active
inhibition (Mus musculus [6]): Active
Activity [7]: Non-Toxic
inhibition (Mus musculus [8]): Active
inhibition (Mus musculus [9]): Active
inhibition in vivo at 1.08 mg/kg/day (SW620/5-FU): 7.5%
inhibition in vivo at 1.08 mg/kg/day [10]: 66.2%
Activity [11]: Non-Toxic
Ka [12]: 5.28 10^6/M/s
Dissociation rate constant (koff) [13]: 6.97 10^-1/s
K [14]: 1.32 10^-8M
EC50 [15]: 0.21 µM
EC50 (HCT-116): 0.18 µM
EC50 (NCM460): 9.44 µM
inhibition [16]: Dose-Dependent Effect
inhibition [17]: Dose-Dependent Effect
inhibition [18]: Active
inhibition [19]: Active
Activity [20]: Non-Toxic
Activity [21]: Non-Toxic
Activity [22]: 10 mg/L
Activity [23]: 0.17 mg/L
inhibition [24]: Active
remaining at 1 h, 2 µM [25]: 97.9%
remaining at 1 h, 2 µM [26]: 95.2%
half-life [27]: 4.7 h
AUC(0-t) at 24 h [28]: 3840 ng·h/mL
AUC(0-inf) [29]: 1950 ng·h/mL
AUC(0-inf) [30]: 3960 ng·h/mL
Vd [31]: 3.3 L/kg
Vd [32]: 1.7 L/kg
clearance [33]: 8.5 mL/min/kg
clearance [34]: 4.17 mL/min/kg
MRT last at 24 h [35]: 6 h
MRT last at 24 h [36]: 6.2 h
MRT inf [37]: 6.7 h
MRT inf [38]: 7 h
blood plasma ratio at 24 h [39]: 0.484
inhibition (Mus musculus [40]): Active
